ChEMBL document CHEMBL1133133, “Difluoroketones as inhibitors of matrix metalloprotease-13” (Bioorg Med Chem Lett, 2000)

Molecular target: Collagenase 3 (Homo sapiens, UniProt P45452)
Test: Inhibition of Matrix metalloprotease-13

SMILES	IC50 [µM]
CNC(=O)C(NC(=O)C(CCc1ccccc1)CC(=O)C(F)(F)c1ccc(Cc2ccccc2)cc1)C(C)(C)C (centres undefined)	5.1
C=CCCC(=O)C(F)(F)c1ccc(Cc2ccccc2)cc1	> 30
CNC(=O)[C@@H](NC(=O)C(CCc1ccccc1)CP(=O)(O)Cc1ccc(Cc2ccccc2)cc1)C(C)(C)C (some centres undefined)	0.014
O=C(C(CCc1ccccc1)CC(=O)C(F)(F)c1ccc(Cc2ccccc2)cc1)N1CCCCC1 (centres undefined)	6.1
CNC(=O)C(NC(=O)CCC(=O)C(F)(F)c1ccc(Cc2ccccc2)cc1)C(C)(C)C (centres undefined)	12
CNC(=O)C(NC(=O)C(CCc1ccccc1)CC(O)C(F)(F)c1ccc(Cc2ccccc2)cc1)C(C)(C)C (centres undefined)	> 30
C=CC(CCc1ccccc1)CC(O)C(F)(F)c1ccc(Cc2ccccc2)cc1 (centres undefined)	27
O=C(CCCCc1ccccc1)C(F)(F)c1ccc(Cc2ccccc2)cc1	> 30
C=CC(CCc1ccccc1)CC(=O)C(F)(F)c1ccc(Cc2ccccc2)cc1 (centres undefined)	0.29
